Results: patent publication US6316503A, “LXR modulators” (Tularik Inc., priority 2000, dated 2001)

Key:
[1] = target: T1, LXRα (Homo sapiens, UniProt Q13133); test: cell-based GAL4-LXRα luciferase reporter assay; conditions: 293 cells with GAL4 DNA-binding domain fused to LXRα ligand-binding domain, UAS luciferase reporter; concentration producing 50% of maximal luciferase activity
T1 construct: expressed in transfected cells; host or cells: 293 cells
T1 sequence (Q13133 209-447 limits assumed): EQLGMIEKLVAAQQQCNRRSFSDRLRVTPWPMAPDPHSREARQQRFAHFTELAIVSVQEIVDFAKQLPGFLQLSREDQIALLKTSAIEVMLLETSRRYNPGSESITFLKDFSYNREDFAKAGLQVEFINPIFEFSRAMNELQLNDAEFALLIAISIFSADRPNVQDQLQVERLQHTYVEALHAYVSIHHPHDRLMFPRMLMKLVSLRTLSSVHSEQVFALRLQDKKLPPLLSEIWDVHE
Text: (§1) LXRα agonist activity can be characterized in a cell-based assay or a peptide-sensor assay. The same assays can be utilized to characterize LXRα antagonist activity, by evaluating the ability of a compound to block the effects of an LXRα agonist, such as 24,25-epoxycholesterol.
Briefly, for the cell-based assay, a DNA-binding domain of the nonreceptor transcription factor GAL4 was fused to the putative ligand-binding domain of LXRα. The resultant construct was introduced into 293 cells, together with UAS-containing luciferase reporter construct. The transfected cells were then treated with chemical libraries and luciferase activity was measured. Individual compounds were evaluated relative to a control (no addition of compound) and the EC50 was determined as the concentration necessary to produce 50% of the maximal luciferase activity.

[2] = target: T2, LXRα (Homo sapiens, UniProt Q13133); test: peptide sensor LXR assay (in vitro); format: biochemical
T2 sequence (Q13133 1-447): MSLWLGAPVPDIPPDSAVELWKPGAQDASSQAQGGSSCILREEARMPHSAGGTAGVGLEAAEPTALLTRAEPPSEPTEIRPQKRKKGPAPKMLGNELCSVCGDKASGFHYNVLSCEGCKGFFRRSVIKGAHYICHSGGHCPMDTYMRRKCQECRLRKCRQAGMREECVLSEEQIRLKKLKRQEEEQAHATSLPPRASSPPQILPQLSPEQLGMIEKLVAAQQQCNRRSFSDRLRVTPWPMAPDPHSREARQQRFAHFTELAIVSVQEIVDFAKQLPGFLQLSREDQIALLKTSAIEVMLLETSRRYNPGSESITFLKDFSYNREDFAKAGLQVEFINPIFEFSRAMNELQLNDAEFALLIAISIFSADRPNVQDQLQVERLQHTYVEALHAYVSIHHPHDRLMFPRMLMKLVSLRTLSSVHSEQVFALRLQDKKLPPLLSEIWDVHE
Experimental: as §1
The peptide sensor LXR assay is an in vitro assay and was conducted as generally described in co-pending applications Ser. Nos. 08/975,614 (filed Nov. 21, 1997) and 09/163,713 (filed Sep. 30, 1998).

EC50 [1]: < 2000 nM
EC50 [2]: < 2000 nM
SMILES: O=S(=O)(Nc1ccc(C(O)(C(F)(F)F)C(F)(F)F)cc1)c1ccccc1 [Compound 2]
